Results as given in patent US12448394B2, “Heterocyclic pyrazole derivatives as type III receptor tyrosine kinase inhibitors” (DEVELOPMENT CENTER FOR BIOTECHNOLOGY, priority 2019, dated 2025).

Legend:
[1] = tested on: A375 melanoma cell with BRAF V600E mutation; experiment: A375 cell proliferation assay (counter screen); format: cell-based, human; details: Homo sapiens, A-375, A375 cells, 72 hours treatment, CellTiter96, read-out: anti-proliferation activity A375 BRAF V600E, IC50 ranking
Method in brief: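 A375 cells (BRAF V600E) seeded at 2000 cells/well in DMEM with 10% FBS, settled overnight at 37° C, 5% CO2, then exposed to increasing compound concentrations for 72 hours. Viability read by MTS-type CellTiter96 AQueous reagent, absorbance at 490 nm after 2–4 hours.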

[2] = tested on: MV4-11 human acute myeloid leukemia cell with FLT3-ITD mutation; experiment: MV4-11 cell proliferation assay (CellTiter 96); format: cell-based; details: Homo sapiens, MV4-11, 72 h, MV4-11 cells, 72 hours treatment, CellTiter96; read-out: anti-proliferation activity MV4-11 (FLT3-ITD), IC50 ranking
Method in brief: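 Cells seeded at 6500/well in IMDM with 10% heat-inactivated FBS, left overnight at 37 °C, 5% CO2, then exposed to increasing compound concentrations for 72 h. Viability read as absorbance at 490 nm after 2–4 h with CellTiter96 AQueous One reagent.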

[3] = tested on: HCC827 NSCLC cell with EGFR exon 19 deletion mutation; experiment: HCC827 cell proliferation assay (counter screen); format: cell-based, human; details: Homo sapiens, HCC827 cells, 72 hours treatment, CellTiter96, read-out: anti-proliferation activity HCC827 EGFR Exon19 del, IC50 ranking
Method in brief: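 HCC827 cells (EGFR exon 19 deletion) were seeded at 8000 cells/well in RPMI1640 with 10% FBS, then exposed to increasing compound concentrations for 72 h at 37 °C. Viability was read by CellTiter96 AQueous One (MTS), absorbance 490 nm after 2–4 h.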

[4] = tested on: Molm-14 human acute myeloid leukemia cell with FLT3-ITD mutation; experiment: Molm-14 cell proliferation assay (CellTiter 96); format: cell-based; details: Homo sapiens; Molm-14 cells, 72 hours treatment, CellTiter96; read-out: anti-proliferation activity Molm-14 (FLT3-ITD), IC50 ranking
Method in brief: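 Molm-14 (FLT3-ITD AML) cells in RPMI 1640 with 10% heat-inactivated FBS were seeded at 25000 cells/well, incubated overnight at 37° C, 5% CO2, then treated with increasing compound concentrations for 72 hours. Viability was read as absorbance at 490 nm after 2˜4 hours with CellTiter96 AQueous One reagent.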

MET kinase = biological target: T1, MET kinase (Homo sapiens, UniProt P08581); experiment: MET kinase assay (AlphaScreen, counter screen); format: biochemical; details: read-out: Ranking of IC50 values, MET
T1 construct: purchased SignalChem
T1 sequence (P08581 25-1390): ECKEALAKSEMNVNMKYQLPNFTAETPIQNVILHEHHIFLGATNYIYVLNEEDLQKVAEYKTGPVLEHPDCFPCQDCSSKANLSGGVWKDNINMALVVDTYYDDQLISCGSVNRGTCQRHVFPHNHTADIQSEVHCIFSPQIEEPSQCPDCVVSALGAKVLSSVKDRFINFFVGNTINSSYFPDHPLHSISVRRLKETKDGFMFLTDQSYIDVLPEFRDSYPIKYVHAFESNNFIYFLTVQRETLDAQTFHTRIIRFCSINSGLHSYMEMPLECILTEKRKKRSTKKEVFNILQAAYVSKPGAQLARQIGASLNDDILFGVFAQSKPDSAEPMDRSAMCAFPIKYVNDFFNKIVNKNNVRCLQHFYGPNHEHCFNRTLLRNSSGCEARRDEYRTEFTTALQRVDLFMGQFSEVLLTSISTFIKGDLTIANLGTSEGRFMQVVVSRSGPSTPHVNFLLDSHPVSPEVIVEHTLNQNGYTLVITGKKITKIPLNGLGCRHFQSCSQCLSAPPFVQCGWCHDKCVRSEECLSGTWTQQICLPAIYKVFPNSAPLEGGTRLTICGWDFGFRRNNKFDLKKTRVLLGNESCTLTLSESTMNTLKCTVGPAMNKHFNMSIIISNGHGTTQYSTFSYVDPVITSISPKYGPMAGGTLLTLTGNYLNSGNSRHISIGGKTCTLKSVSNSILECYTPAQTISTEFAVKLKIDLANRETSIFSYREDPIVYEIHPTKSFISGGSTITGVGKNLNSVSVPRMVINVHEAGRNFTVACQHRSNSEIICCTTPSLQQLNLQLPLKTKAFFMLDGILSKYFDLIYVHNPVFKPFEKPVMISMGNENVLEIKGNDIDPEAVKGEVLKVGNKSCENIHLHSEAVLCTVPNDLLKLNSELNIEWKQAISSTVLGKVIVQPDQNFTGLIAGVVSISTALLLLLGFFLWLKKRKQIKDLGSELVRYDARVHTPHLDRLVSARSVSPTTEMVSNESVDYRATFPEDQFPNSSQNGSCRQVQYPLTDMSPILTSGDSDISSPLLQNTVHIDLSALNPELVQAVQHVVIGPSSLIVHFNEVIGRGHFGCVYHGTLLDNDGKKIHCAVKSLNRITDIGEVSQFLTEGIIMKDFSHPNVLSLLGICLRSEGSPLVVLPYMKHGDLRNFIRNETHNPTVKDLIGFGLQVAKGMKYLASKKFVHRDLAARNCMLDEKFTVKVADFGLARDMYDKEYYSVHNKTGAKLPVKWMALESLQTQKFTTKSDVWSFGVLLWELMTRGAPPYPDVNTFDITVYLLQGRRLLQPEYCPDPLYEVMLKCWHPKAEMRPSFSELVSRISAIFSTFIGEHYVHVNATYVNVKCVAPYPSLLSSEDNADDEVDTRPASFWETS
Method in brief: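 IC50 came from duplicate serial dilutions, with AlphaScreen detection of phosphorylated biotin-poly(Glu4:Tyr1). The reaction used 1 ng recombinant MET, 10 µM ATP […], and MOPS pH 7.0/MgCl2 buffer, ran 45 min at 30 °C, and was quenched with EDTA.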

PDGFRα kinase = biological target: T2, PDGFRα kinase (Homo sapiens, UniProt P16234); experiment: PDGFRα kinase assay (AlphaScreen); format: biochemical; details: read-out: Ranking of IC50 values, PDGFRα
T2 construct: purchased SignalChem
T2 sequence (P16234 24-1089): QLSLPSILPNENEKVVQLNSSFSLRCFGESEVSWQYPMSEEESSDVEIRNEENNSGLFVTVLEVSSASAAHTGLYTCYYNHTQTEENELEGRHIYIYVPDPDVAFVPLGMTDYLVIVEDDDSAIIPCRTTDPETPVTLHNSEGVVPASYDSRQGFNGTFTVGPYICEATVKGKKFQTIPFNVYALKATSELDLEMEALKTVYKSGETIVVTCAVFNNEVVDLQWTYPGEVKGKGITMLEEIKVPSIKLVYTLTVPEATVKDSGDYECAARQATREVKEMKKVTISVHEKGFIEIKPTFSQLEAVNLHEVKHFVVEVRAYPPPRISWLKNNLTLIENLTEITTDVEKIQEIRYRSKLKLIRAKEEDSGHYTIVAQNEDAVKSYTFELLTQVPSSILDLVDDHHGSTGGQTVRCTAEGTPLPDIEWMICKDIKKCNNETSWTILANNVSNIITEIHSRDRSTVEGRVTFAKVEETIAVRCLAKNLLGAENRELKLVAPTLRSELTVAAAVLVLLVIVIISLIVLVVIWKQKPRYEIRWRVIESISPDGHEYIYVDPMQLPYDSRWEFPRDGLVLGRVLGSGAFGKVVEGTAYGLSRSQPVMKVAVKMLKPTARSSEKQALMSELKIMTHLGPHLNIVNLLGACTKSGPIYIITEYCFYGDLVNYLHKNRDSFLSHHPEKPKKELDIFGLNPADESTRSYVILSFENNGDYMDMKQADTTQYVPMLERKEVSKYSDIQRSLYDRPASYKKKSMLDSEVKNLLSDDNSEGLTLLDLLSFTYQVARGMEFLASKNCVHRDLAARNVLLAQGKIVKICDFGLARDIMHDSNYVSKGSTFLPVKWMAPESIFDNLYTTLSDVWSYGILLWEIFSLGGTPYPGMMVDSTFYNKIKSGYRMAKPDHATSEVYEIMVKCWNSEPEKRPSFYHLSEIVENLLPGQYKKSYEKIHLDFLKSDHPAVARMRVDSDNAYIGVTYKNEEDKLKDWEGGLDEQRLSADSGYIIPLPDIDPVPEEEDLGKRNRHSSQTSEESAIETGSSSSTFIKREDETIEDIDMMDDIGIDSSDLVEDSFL
Method in brief: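 IC50 values came from duplicate serial dilutions, with product read by AlphaScreen. The reaction ran 30 min at 30 °C, then EDTA stop: 1.5 ng recombinant enzyme, biotin-poly(Glu4:Tyr1) substrate, 10 μM ATP, 10 mM MOPS pH 7.0, 10 mM MgCl2.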

| IC50 [2] | IC50 [4] | IC50 (MET kinase) | IC50 (PDGFRα kinase) | Compound | IC50 [1] | IC50 [3] |
| --- | --- | --- | --- | --- | --- | --- |
| 30 to 100 nM | < 30 nM | 300 to 1000 nM | 1 to 10 nM | Cn1ncc2ccc(-c3n[nH]c4c3Cc3sc(-c5ccc(CN6CC7(COC7)C6)cc5)cc3-4)cc21 [Compound 102, 6-(4-(3-(1-methyl-1H-indazol-6-yl)-1,4-dihydro-thieno[2′,3′:4,5]cyclopenta [1,2-c]pyrazol-6-yl)benzyl)-2-oxa-6-azaspiro [3.3]heptane] | > 10000 nM | > 10000 nM |
| < 30 nM | 30 to 100 nM | 300 to 1000 nM | 1 to 10 nM | Cn1ncc2ccc(-c3n[nH]c4c3Cc3sc(-c5ccc(CN6CCC6)cc5)cc3-4)cc21 [Compound 103, 6-(4-(azetidin-1-ylmethyl)phenyl)-3-(1-methyl-1H-indazol-6-yl)-1,4-dihydro-thieno[2′,3′:4,5]cyclopenta [1,2-c]pyrazole] | > 10000 nM | > 10000 nM |
| 30 to 100 nM | 100 to 300 nM | > 1000 nM | 30 to 100 nM | Cn1ncc2ccc(-c3n[nH]c4c3Cc3sc(-c5ccc(CN6CC(F)(F)C6)cc5)cc3-4)cc21 [Compound 104, 6-(4-((3,3-difluoroazeti-din-1-yl)methyl)phenyl)-3-(1-methyl-1H-indazol-6-yl)-1,4-dihydrothieno [2′,3′:4,5]cyclopenta [1,2-c]pyrazole] | 1000 to 10000 nM | > 10000 nM |
| < 30 nM | < 30 nM | 300 to 1000 nM | 1 to 10 nM | COC1CN(Cc2ccc(-c3cc4c(s3)Cc3c(-c5ccc6cnn(C)c6c5)n[nH]c3-4)cc2)C1 [Compound 105, 6-(4-((3-methoxyazeti-din-1-yl)methyl)phenyl)-3-(1-methyl-1H-indazol-6-yl)-1,4-dihydrothieno [2′,3′:4,5]cyclopenta [1,2-c]pyrazole] | > 10000 nM | > 10000 nM |
